The results in this text go back to patent US9453005B2, “Inhibition of influenza M2 proton channel” (The Trustees Of The University Of Pennsylvania, priority 2008, dated 2016).

Where two headings read alike, the source gives them in different places.

This experiment concerns the target AM2 (Influenza A virus, UniProt P0DOF5). Nature of the experiment: biochemical. Format: biochemical. The note with it: for % Activity: AM2; for change of potency on replacing or installing the head group: compared with the parent compound (BL-1743; 12 for 13).

Sequence of AM2 (P0DOF5 whole entry): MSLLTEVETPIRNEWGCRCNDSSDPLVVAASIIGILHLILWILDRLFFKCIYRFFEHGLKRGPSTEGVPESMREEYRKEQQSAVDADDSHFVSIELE

On to `NC(=S)N1CCC2(CCCCC2)CC1` [Compound 5, 3-Aza-spiro[5,5]undecane-3-carbothioic acid amide], for which the “% Activity” value was determined as 60% and the “change of potency on replacing or installing the head group” value (“change of potency” for short) is given as “no improvement of potency”.

On to `S=C1CCCC(=S)C12CCNCC2` [Compound 11, 3-Aza-spiro[5.5]undecane-7,11-dithione], for which the “% Activity” value amounted to 12%. Further, the IC50 (SAR of BL-1743, read-out: IC50) is 37.6 µM.

As for `C1CCC2(CC1)CCNC2.Cl` [Compound 23, 2-Aza-spiro[4.5]decane hydrochloride], the “% Activity” value is given as 23 (6%).

Take `NS(=O)(=O)N1CCC2(CCCCC2)CC1` [Compound 6, 3-Aza-spiro[5,5]undecane-3-sulfonic acid amide]: the “% Activity” value was 6 (14%) and the “change of potency” value is reported as “Increases of potency”. Besides, for the setting “Table 1, read-out: IC50”, the half-inhibitory concentration (IC50) was determined as 15.3 µM.

For `NC(=O)N1CCC2(CCCCC2)CC1` [Compound 4, 3-Aza-spiro[5.5]undecane-3-carboxylic acid amide], the “% Activity” value is reported as 30% and the “change of potency” value is listed as “no improvement of potency”.

Consider `CC1(C)CCNCC1.Cl` [Compound 22, 4,4-Dimethyl-piperidine hydrochloride], for which the “% Activity” value was 22 (55%).

As for `CN1CCC2(CCCCC2)CC1.Cl` [Compound 3, 3-methyl-3-azoniaspiro[5.5]undecane chloride], the “% Activity” value worked out at 7%. Besides, for the setting “Table 1, read-out: IC50”, the IC50 turned out to be 20.6 µM.

In the case of `N=C(N)N1CCC2(CCCCC2)CC1` [Compound 7, 3-Aza-spiro[5,5]undecane-3-carboxamidine], the “% Activity” value came out at 13% and the “change of potency” value was “Increases of potency”. Further, under “Table 1, read-out: IC50”, the concentration for half-maximal inhibition (IC50) is 22.8 µM.

For the compound `CNC1CC2CC1C1CCCC21` (stereo not drawn) [Compound 17, N-methyl-N-tricyclo[5.2.1.0 2,6]dec-8-ylaminium chloride], it took 13.6 µM to reach half-maximal inhibition (IC50).

Compound `NC1CC2CC1C1CCCC21` (stereo not drawn) [Compound 16, tricyclo[5.2.1.0 2,6]dec-8-ylaminium chloride] had a half-inhibitory concentration (IC50) of 15.3 µM.

In the case of `C1CCC2(C1)CCNCC2` [Compound 12, 8-Aza-spiro[4.5]decane], the “% Activity” value is 12 (16.2%). Also, the IC50 (Table 1, read-out: IC50) came to 8.14 µM.

Turning to `C1CCC2CN(C3=NCCN3)CCC2C1` (mixture of isomers) [Compound 15, 2-(octahydroisoquinolin-2(1H)-yl)-4,5-dihydro-1H-imidazol-1-ium iodide], the IC50 was 29.5 µM.

Turning to `NC1CCC2(CCCCC2)CC1` [Compound 8, Spiro[5.5]undec-3-ylamine], the “% Activity” value is given as 11%.

In the case of `C1CCC2(C1)CCN(C1=NCCN1)CC2` [Compound 13, 8-(4,5-Dihydro-1H-imidazol-2-yl)-8-aza-spiro[4.5]decane], the “change of potency” value is “detrimental to the activity”.

Consider `OC(c1cnc[nH]1)N1CCC2(CCCCC2)CC1` (stereo not drawn) [Compound 19, (3-Aza-spiro[5.5]undec-3-yl)-(3H-imidazol-4-yl)-methanol], for which the “% Activity” value was 30%.

As for `O=C1CCCC(=O)C12CCNCC2` [Compound 10, 3-Aza-spiro[5.5]undecane-7,11-dione], the “% Activity” value is 100%. For the same compound, the 50% inhibitory concentration (IC50) (SAR of BL-1743, read-out: IC50) is more than 100 µM. The “activity at 100 μM” value (at 100 μM tested) is “no activity”.
